Test results published in patent US11414404B2, “Compounds for the treatment of BRAF-associated diseases and disorders” (Array BioPharma Inc., priority 2019, dated 2022).
pIC50: −log10 of the molar value.

Columns and labels:
[1] = biological target: full-length FLAG-tagged B-Raf(V600E) (Homo sapiens (Human), UniProt P15056, V600E); experiment: BRAF V600E enzyme assay (TR-FRET competitive displacement of fluorescent tracer); type: binding; settings: averaged IC50; 60 min at ambient temperature; 11-point dosing, top dose 10 μM
Source text: (§1) A competitive displacement assay was configured for B-Raf that monitors the amount of a fluorescently-tagged “tracer” bound to B-Raf via TR-FRET from an anti-tag Eu-labeled antibody also bound to B-Raf.
(§2) [formula] • where: • Xmax Average Uninhibited Controls • Xmin Average Background
(§3) A 4-parameter logistic model was the fit to the POC data for each compound.

[2] = biological target: N-terminally GST-tagged B-Raf(V600K) (Homo sapiens, UniProt P15056, V600K); experiment: BRAF V600K enzyme assay (TR-FRET competitive displacement of fluorescent tracer); type: binding; settings: averaged IC50; 60 min at ambient temperature; 11-point dosing, top dose 10 μM
Source text: as §1, §2, §3

[3] = PK (free brain-to-free plasma ratio) (mouse); type: in vivo; settings: unbound brain-to-unbound plasma concentration ratio; male CD-1 mice; oral gavage 10 mg/kg; sampling 2-24 hours
Method: PK (Free Brain-to-Free Plasma Ratio) (Mouse)
The ability of representative compounds to penetrate the BBB in mice was determined by evaluating the unbound brain-to-unbound plasma (also referred to as free brain-to-free plasma) concentration ratio in male CD-1 mice.
Brain samples were stored at −20±5° C. prior to analysis. Concentrations of test compound in mouse brain homogenate were determined by liquid chromatography tandem mass spectrometry (LC-MS/MS) following protein precipitation with acetonitrile. A 12-point calibration curve, ranging from 0.5 to 10,000 ng/mL, was prepared in duplicate. A solution of 400 μg/mL of test compound in dimethyl sulfoxide (DMSO) was serially diluted (3-fold) in 100% DMSO, and then 2.5 μL of each standard solution was added to 100 μL of naïve male CD-1 mice brain homogenate. To mimic the extraction in the standard curve, 2.5 μL of DMSO was added to all test samples. Both calibration and test brain homogenate samples were spiked with 10 μL of an IS (1 μg/mL of a structural analog). Brain homogenate was generated by adding 0.75 mL of 4:1 water:MeOH to each brain sample followed by homogenization for 1 minute with bead beater tubes a 6 m/s using an MP Fast Prep-24®. Proteins were precipitated from 100 μL of brain homogenate sample by the addition of 300 μL of acetonitrile. […] A 100 μL aliquot of each supernatant was transferred via a 550 μL Personal Pipettor (Apricot Designs, Monrovia, Calif.) to 96-well plates and diluted 1:1 with HPLC grade water. The resulting plates were sealed with aluminum for LC-MS/MS analysis.
Brain-to-plasma ratios were calculated using the concentration of compound measured in the brain divided by the concentration of compound measured in the plasma. Brain-to-plasma ratios were always generated from a single animal and time point. Free brain-to-free plasma ratios were calculated by multiplying the brain-to-plasma ratio by the in vitro brain homogenate free fraction divided by the in vitro plasma free fraction using the following equation: (B/P)*(Bfu/Pfu).

P-gp (MDR1) = P-gp (MDR1) (Homo sapiens (Human), UniProt P08183); settings: pig, LLC-PK1, 2 h, 1 µM
BCRP [4] = biological target: BCRP (Homo sapiens (Human), UniProt Q9UNQ0); settings: dog, 2 h, 1 µM
Method: BCRP transfected MDCKII cells were cultured and plated according to manufacturer's recommendations. Assay conditions included with and without the BCRP-specific inhibitor, K0143, at a concentration of 0.3 μM to ascertain the contribution of BCRP to the efflux value of the test compound.
Both positive and negative controls were used to assess functionality of P-gp or BCRP efflux in the assays. […] Final organic concentration in the assay was 1%. All dosing solutions contained 10 μM lucifer yellow to monitor LLC-PK1 or MDCKII cell monolayer integrity.
For the apical to basolateral determination (A to B), 75 μL of the test article in transport buffer were added to the apical side of the individual transwells and 250 μL of basolateral media, without compound or lucifer yellow, were added to each well. For the basolateral to apical determination (B to A), 250 μL of test article in transport buffer were added to each well and 75 μL transport buffer, without compound or lucifer yellow, were added to each transwell. All tests were performed in triplicate, and each compound was tested for both apical to basolateral and basolateral to apical transport. The plates were incubated for 2 hours on a Lab-Line Instruments Titer Orbital Shaker (VWR, West Chester, Pa.) at 50 rpm and 37° C. with 5% CO2. All culture plates were removed from the incubator and 50 μL of media were removed from the apical and basolateral portion of each well and added to 150 μL of 1 μM labetalol in 2:1 acetonitrile (acetonitrile): H2O, v/v.
These values were accepted when found to be below 2% for apical to basolateral and 5% basolateral to apical flux across the MDR1-transfected LLC-PK1 or BCRP-transfected MDCKII cell monolayers. The plates were sealed and the contents of each well analyzed by LC-MS/MS. The compound concentrations were determined from the ratio of the peak areas of the compound to the internal standard (labetalol) in comparison to the dosing solution.
The LC-MS/MS system was comprised of an HTS-PAL autosampler (Leap Technologies, Carrboro, N.C.), an HP1200 HPLC (Agilent, Palo Alto, Calif.), and a MDS Sciex 4000 Q Trap system (Applied Biosystems, Foster City, Calif.). […] The total run time, including re-equilibration, for a single injection was 1.2 minutes. Mass spectrometric detection of the analytes was accomplished using the ion spray positive mode.
An efflux ratio is calculated from the mean apical to basolateral (A−B) Papp data and basolateral to apical (B−A) Papp data: Efflux ratio=Papp(B−A)/Papp(A−B)

BCRP [5] = settings: reported in the literature; cited from earlier work
[6] = tested on: A375-luciferase intracranial tumor xenografts; experiment: Intracranial A375-luciferase efficacy and survival mouse tumor model; type: in vivo, female nu/nu NCr mice; settings: for Survival (# Animals on day 90): n=10
Method: Female nu/nu NCr mice from Envigo (Indianapolis, Ind.) were obtained at 5-6 weeks of age and housed in groups of 5. Following a one week minimum acclimation period, mice received orthotopic (i.c.) intracranial injections of 3.0×10^3 A375-luciferase tumor cells suspended in a volume of 10 μL 0.9% sterile Dulbecco's phosphate buffered saline (DPBS) using the top-down approach (Laursen and Belknap, 1986). Seven days post cell implant (Day 1), animals were randomized and sorted into five groups (n=10/group).
Test compounds were given at a dose volume of 10 mL/kg, and vehicles were matched for each group to control for dosing stress, i.e. all groups received twice daily (BID) dose administration by oral gavage (PO) at the relevant dose volumes and schedule shown in Table 9. Tumor growth was monitored by measuring luciferase activity twice per week. Total flux/mouse can vary by an order of magnitude on day 1 of study start (start of dosing). The total flux was normalized per mouse by assigning the first measurement of flux on […] as 100%. Body weight loss as an indicator of tumor progression was determined daily during the dosing interval and then as needed (at least once weekly). Survival was evaluated through day 90 (30 days post-dosing cessation).

[7] = tested on: LLC-PK1 or MDCKII cell monolayer; settings: 2 h, 1 µM

Chain of full-length FLAG-tagged B-Raf(V600E) (P15056 whole entry V600E): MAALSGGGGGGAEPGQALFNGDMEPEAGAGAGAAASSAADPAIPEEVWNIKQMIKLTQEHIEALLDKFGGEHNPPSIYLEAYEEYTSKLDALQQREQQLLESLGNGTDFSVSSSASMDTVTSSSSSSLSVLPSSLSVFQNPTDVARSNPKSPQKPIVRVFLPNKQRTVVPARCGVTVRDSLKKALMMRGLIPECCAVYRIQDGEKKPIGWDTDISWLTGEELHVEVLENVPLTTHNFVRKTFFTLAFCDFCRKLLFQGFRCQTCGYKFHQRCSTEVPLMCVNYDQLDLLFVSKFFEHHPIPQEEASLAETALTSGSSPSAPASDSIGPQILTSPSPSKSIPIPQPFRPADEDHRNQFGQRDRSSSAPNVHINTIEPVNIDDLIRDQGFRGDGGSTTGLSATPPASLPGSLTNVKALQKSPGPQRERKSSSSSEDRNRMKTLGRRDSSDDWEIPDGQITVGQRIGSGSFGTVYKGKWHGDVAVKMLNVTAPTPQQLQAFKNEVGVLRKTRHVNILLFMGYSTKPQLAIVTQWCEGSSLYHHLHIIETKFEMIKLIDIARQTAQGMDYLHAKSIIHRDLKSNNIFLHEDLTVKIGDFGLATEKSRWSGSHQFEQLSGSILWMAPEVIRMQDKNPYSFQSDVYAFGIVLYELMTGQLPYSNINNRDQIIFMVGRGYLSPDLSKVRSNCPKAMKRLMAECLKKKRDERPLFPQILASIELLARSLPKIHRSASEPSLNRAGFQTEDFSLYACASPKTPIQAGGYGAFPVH
Chain of BCRP (Homo sapiens (Human), UniProt Q9UNQ0) (Q9UNQ0 whole entry, species assumed): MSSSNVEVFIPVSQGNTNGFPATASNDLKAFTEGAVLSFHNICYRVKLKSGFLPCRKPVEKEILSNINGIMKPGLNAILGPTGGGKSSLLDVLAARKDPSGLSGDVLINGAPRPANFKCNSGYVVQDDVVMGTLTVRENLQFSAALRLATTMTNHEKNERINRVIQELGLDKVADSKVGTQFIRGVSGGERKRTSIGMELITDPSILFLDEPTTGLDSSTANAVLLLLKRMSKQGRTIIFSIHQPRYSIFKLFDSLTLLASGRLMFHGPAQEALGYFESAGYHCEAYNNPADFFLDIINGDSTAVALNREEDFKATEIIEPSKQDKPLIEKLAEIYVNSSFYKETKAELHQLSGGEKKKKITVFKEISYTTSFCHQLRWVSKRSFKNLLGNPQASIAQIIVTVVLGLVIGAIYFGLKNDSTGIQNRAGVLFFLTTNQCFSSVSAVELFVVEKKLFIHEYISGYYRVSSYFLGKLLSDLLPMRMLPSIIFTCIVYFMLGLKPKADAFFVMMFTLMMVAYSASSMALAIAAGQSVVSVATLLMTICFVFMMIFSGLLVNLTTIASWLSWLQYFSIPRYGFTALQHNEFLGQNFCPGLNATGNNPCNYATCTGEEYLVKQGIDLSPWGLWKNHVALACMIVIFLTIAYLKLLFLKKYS
Chain of P-gp (MDR1) (P08183 whole entry, species assumed): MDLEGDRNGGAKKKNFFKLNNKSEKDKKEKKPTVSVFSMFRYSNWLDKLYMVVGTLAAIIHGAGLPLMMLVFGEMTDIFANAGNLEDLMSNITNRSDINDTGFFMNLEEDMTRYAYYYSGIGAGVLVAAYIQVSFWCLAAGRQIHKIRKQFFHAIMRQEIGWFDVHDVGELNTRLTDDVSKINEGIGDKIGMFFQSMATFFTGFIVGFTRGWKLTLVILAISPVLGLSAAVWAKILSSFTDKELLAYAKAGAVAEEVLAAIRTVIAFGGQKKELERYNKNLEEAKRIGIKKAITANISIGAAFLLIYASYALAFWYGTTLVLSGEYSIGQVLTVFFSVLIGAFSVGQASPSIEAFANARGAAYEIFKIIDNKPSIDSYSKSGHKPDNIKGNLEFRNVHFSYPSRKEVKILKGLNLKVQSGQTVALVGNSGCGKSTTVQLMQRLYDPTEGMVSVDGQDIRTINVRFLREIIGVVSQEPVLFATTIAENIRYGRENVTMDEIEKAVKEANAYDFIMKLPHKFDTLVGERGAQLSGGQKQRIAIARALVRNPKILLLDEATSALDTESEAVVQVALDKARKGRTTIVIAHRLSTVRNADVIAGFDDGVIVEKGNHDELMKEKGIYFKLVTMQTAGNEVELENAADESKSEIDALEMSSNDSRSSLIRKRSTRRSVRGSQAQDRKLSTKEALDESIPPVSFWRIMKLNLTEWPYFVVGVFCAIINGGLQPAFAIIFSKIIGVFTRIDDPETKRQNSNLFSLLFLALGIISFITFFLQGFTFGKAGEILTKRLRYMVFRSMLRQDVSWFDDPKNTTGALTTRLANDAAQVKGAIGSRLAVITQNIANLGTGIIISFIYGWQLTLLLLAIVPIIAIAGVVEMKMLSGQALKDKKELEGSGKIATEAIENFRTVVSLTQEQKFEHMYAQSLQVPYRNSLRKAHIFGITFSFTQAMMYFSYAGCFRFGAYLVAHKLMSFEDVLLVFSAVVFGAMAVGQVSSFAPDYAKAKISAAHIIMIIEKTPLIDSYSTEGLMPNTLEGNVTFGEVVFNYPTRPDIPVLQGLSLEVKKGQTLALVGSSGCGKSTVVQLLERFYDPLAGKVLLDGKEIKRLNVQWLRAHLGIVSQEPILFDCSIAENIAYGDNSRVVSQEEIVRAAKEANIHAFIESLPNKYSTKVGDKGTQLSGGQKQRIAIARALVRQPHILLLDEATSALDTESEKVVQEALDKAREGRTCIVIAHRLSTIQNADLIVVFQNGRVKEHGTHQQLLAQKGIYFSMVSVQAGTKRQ
Chain of N-terminally GST-tagged B-Raf(V600K) (P15056 2-766 V600K limits assumed): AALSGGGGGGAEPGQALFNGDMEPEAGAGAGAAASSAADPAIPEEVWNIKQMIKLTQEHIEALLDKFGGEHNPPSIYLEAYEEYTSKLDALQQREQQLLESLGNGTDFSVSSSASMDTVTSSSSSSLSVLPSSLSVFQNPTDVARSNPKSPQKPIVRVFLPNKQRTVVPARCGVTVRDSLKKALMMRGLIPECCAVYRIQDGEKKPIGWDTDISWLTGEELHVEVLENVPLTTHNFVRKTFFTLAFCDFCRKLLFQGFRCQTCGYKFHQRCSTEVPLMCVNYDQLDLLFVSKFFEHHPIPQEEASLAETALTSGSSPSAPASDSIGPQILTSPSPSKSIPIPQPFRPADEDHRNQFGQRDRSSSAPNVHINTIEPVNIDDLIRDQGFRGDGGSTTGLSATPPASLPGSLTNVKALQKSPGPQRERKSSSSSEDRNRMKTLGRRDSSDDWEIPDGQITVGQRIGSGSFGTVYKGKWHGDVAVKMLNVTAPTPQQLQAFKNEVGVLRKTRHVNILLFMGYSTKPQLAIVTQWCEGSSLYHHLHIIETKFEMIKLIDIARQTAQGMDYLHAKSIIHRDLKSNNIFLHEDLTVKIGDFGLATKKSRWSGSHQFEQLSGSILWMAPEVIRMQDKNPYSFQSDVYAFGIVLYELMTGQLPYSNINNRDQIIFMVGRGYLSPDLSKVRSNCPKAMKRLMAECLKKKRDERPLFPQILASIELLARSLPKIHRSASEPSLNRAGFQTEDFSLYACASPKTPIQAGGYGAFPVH

| pIC50 [1] | pIC50 [2] | B/P ratio (free) [3] | MDR1 efflux ratio (P-gp (MDR1)) | BCRP efflux ratio (BCRP [4]) | Compound | BCRP efflux ratio (BCRP [5]) | Permeability [7] | further results |
| --- | --- | --- | --- | --- | --- | --- | --- | --- |
| 8.27 | 8.51 | 0.46-0.51 | 1.1 | 0.83 | N-{2-chloro-3-[(3,5-dimethyl-4-oxo-3,4-dihydroquinazolin-6-yl)oxy]-4-fluorophenyl}propane-1-sulfonamide [Example 55] |  |  |  |
|  |  |  |  |  | CCCS(=O)(=O)Nc1ccc(F)c(C(=O)c2c[nH]c3ncc(-c4ccc(Cl)cc4)cc23)c1F [vemurafenib] | 495 |  |  |
|  |  |  |  |  | Cc1c(Nc2c(F)ccc(NS(=O)(=O)CCCF)c2Cl)ccc2ncn(C)c(=O)c12 [Example 82, N-(2-chloro-3-((3,5-dimethyl-4-oxo-3,4-dihydroquinazolin-6-yl)amino)-4-fluorophenyl)-3-fluoropropane-1-sulfonamide] |  |  | Survival (# Animals on day 90) ([6]; Example 82 10 mg/kg BID PO 60 days): 6/10; Survival (# Animals on day 90) ([6]; Example 82 30 mg/kg BID PO 60 days): 6/10; efficacy as a single agent in the model ([6]; both doses employed (10 and 30 mg/kg BID PO)): highly effective; effect on tumor growth (total bioluminescence, FIG. 15) ([6]; single agent, BID for 60 consecutive days PO): significant effect |
|  |  |  |  |  | CC(C)(C)c1nc(-c2cccc(NS(=O)(=O)c3c(F)cccc3F)c2F)c(-c2ccnc(N)n2)s1 [dabrafenib] | 21.0 |  |  |
| 8.55 | 8.62 | 0.34-0.4 | 1.3 | 7.7 | N-(3-chloro-4-((3,5-dimethyl-4-oxo-3,4-dihydroquinazolin-6-yl)oxy)-5-fluoropyridin-2-yl)propane-1-sulfonamide [Example 63] |  | 26.09 *10^−6 cm/s |  |

| Compound | pIC50 [1] | pIC50 [2] | B/P ratio (free) [3] | MDR1 efflux ratio (P-gp (MDR1)) | BCRP efflux ratio (BCRP [4]) | BCRP efflux ratio (BCRP [5]) | Permeability [7] | further results |
| --- | --- | --- | --- | --- | --- | --- | --- | --- |
| N-(3-((3,5-dimethyl-4-oxo-3,4-dihydroquinazolin-6-yl)amino)-2-fluoro-5-methylphenyl)propane-1-sulfonamide [Example 46] | 6.83 |  |  | 1.43 | 1.48 |  | 30.74 *10^−6 cm/s |  |
